Values quoted from earlier work as cited in patent US20240180994A1 (priority 2021, published 2024).

Key:
TNF-α, IL-6 and IL-1β = conditions: daily oral 10-30 mg/kg for 4 weeks, aged rats
[1] = test system: HIV-luc/SARS pseudotyped virus; conditions: read-out: effective dose at 50% of inhibition (EC50%)
[2] = test system: TNF-α, IL-1β, MAPKs (p38); conditions: 100 mg/kg, spinal cord injury models
[3] = biological target: SARS-CoV-2 membrane (M) protein (Severe acute respiratory syndrome coronavirus 2, UniProt P0DTC5); conditions: modeling studies
TNF-α = conditions: mouse, in vivo
[4] = biological target: SARS-CoV-2 protease 3CL pro (Severe acute respiratory syndrome coronavirus 2, UniProt P0DTD1)
cathepsin L = cathepsin L (Homo sapiens, UniProt P07711)

CC(/C=C/C=C(\C)C(=O)O[C@@H]1O[C@H](CO[C@@H]2O[C@H](CO)[C@@H](O)[C@H](O)[C@H]2O)[C@@H](O)[C@H](O)[C@H]1O)=C\C=C\C=C(C)\C=C\C=C(/C)C(=O)O[C@@H]1O[C@H](CO[C@@H]2O[C@H](CO)[C@@H](O)[C@H](O)[C@H]2O)[C@@H](O)[C@H](O)[C@H]1O [crocin]
pro-inflammatory cytokines in renal tissue and serum (TNF-α, IL-6 and IL-1β): significantly reduced pro-inflammatory cytokines, TNF-α, IL-6 and IL-1β

O=c1cc(-c2ccc(O)c(O)c2)oc2cc(O)cc(O)c12 [Luteolin]
EC50 [1]: 9.02 µM | EC50 (wild-type SARS-CoV; read-out: EC50% inhibition of cytopathic effect, wild-type SARS-CoV, MTT assay): 10.6 µM | EC50 values times less than cytotoxicity on the cells in vitro (wild-type SARS-CoV; relates to both EC50 values of luteolin): 15 times

CC1=C(C=O)C(C)(C)CC=C1 [safranal]
expression of inflammatory cytokines [2]: decreased the expression of the inflammatory cytokines TNF-α, IL-1β

COc1cc(/C=C/C(=O)O)ccc1O [ferulic acid]
affinity with M protein [3]: higher affinity with the M protein

O=C(O)/C=C/c1ccc(O)c(O)c1 [caffeic acid]
affinity with M protein [3]: higher affinity with the M protein

COc1ccc([C@@H]2CC(=O)c3c(O)cc(O[C@@H]4O[C@H](CO[C@@H]5O[C@@H](C)[C@H](O)[C@@H](O)[C@H]5O)[C@@H](O)[C@H](O)[C@H]4O)cc3O2)cc1O [hesperidin]
TNF-α in LPS-treated mice (TNF-α): decease TNF-α in mice treated with LPS

O=c1c(O)c(-c2ccc(O)cc2)oc2cc(O)cc(O)c12 [Kaempferol]
IC50 [4]: 116 µM

O=c1c(O)c(-c2ccc(O)c(O)c2)oc2cc(O)cc(O)c12 [Quercetin]
cathepsin L inhibition (cathepsin L): inhibit cathepsin L
